Values of other authors as cited in patent US8999393B1, “Sustained release formulations of lorazepam” (Edgemont Pharmaceuticals LLC, priority 2013, dated 2015).

Columns and labels:
[1] = according to the package insert

O=C1Nc2ccc(Cl)cc2C(c2ccccc2Cl)=NC1O (racemic) [lorazepam, ±7-chloro-5-(2-chlorophenyl)-1,3-dihydro-3-hydroxy-2H-1,4-benzodiazepin-2-one]
half-life in human plasma [1]: about 12 hours
solubility in water: almost insoluble
